# Source: patent US8466203B2, “Method of stabilizing human eye tissue by reaction with nitrite and related agents such as nitro compounds” (priority 2006, dated 2013)
# Where two headings read alike, the source gives them in different places.
# Legend:
# porcine sclera [1] = experiment: Thermal shrinkage temperature analysis of porcine scleral strips
# From the text: Thermal shrinkage temperature or denaturation temperature (Ts) is a technique that has been used for decades in studying collagen cross-linking. As collagen fibers are progressively heated, a threshold temperature is reached at which point disruption of hydrogen bonding in the collagen molecule triple helix occurs, resulting in unwinding of the triple helices. The denaturation of tertiary protein structure results in a rapid shrinkage of the tissue of up to 80%. This phenomenon can be expressed in various ways including temperature of onset of tissue shrinkage, temperature at maximal tissue shrinkage, and temperature at 50% of maximal tissue shrinkage, for example. In addition, differential scanning calorimetry (DSC) is related to thermal shrinkage temperature analysis and is widely used to evaluate biomaterial cross-linking. Thermal shrinkage temperature is essentially a simplified version of DSC and can be used effectively to screen the cross-linking efficacy of compounds. For the purposes of this study, the onset of shrinkage is considered the Ts and the temperature at which 50% of maximal shrinkage has occurred is T50. Graphs depicting the relationship between degree of shrinkage and temperature indicate differences in degree of cross-linking between groups. Thus, stabilization of collagen fiber structures through non-enzymatic cross-linking increases Ts and T50.
# This system can perform multiple Ts assays in succession, allowing rapid screening of a number of potential cross-linking agents and conditions. […] Inlet and outlet fittings allow for constant circulation of heated water which is modulated by a digitally controlled water bath equipped with a water pump. The entire box is placed on a digital photo scanner connected to a Windows based computer. Beginning at 50° C. the temperature is raised at a rate of 1° C./min and serial scans are taken at every degree increase in temperature up to 80° C. […] As the tissue shrinks, the images are captured by the scanner. The image files are later analyzed for 2-dimensional area using NIH Image J software and % shrinkage calculations are made using Microsoft Excel for graphing purposes. This method obviates the need for removal of tissue pieces from the water bath with manual micrometer measurements as described by the UVR group (Spoerl, E., et al., 2004).
# Using this simple, reproducible assay enables the screening of a number of compounds for cross-linking efficacy. This is first performed using porcine eyes because of their low cost. Follow up studies can be performed using human eyes. Porcine eyes are obtained within 6 hrs of sacrifice (Hatfield Meat Packing, Inc., Hatfield Pa.). Eyes showing clear corneas and intact epithelia are chosen for study. […] Each strip is then cross-linked using a nitro agent. […] Opthalmol. 1999; 117:166-169) for 24-96 hrs. Following incubation, the samples are evaluated for degree of cross-linking using the Ts assay as described above.
# From the data, Ts curves are generated for each compound and condition studied. Each data point is the average of 3 independent samples.
# Solubility in water = assay type: physicochemical
# [2] = 4° C.
# Method: Adult porcine eyes were obtained within 12 hours of. sacrifice and submerged in solutions of 0, 10, 100 mM NaNO2 and 100 mM NaCl buffered with 50 mM NaH2PO4/Na2HPO4 (pH 7.4) following bubbling with 99% Argon/1% O2 in order to limit the amount of potential nitrite auto-oxidation caused by oxygen. Penicillin/Streptomycin was added (10 μl/ml) to prevent bacterial overgrowth. After 24 hours of incubation at 4° C., the aqueous humor was sampled for nitrite concentration using a modification of the Greiss colorimetric assay.
# Adult porcine eyes were obtained within 12 hrs of sacrifice and submerged in solutions of 0, 10, 100 mM NaNO2 and 100 mM NaCl buffered with 50 mM NaH2PO4/Na2HPO4 (pH 7.4) following bubbling with 100% Argon in order to limit the amount of potential nitrite auto-oxidation caused by oxygen. Penicillin/Streptomycin was added (10 ul/ml) to prevent bacterial overgrowth. After 24 hrs of incubation at 4° C., the aqueous humor was sampled for nitrite concentration using a modification of the Greiss colorimetric assay.
# type I collagen = type I collagen (Bos taurus, UniProt P02453+P02465); conditions: 7 day incubation, pH 7.4, 4° C.
# Method: Samples of pepsin-solubilized, bovine skin collagen type I (Purecol, 3 mg/ml, Inamed Corporation, Fremont, Calif., USA) dissolved in 0.012N HCl were spiked with dH2O containing 1M NaNO2 or NaCl concentration to obtain final concentrations of 0 mM, 10 mM, 100 mM NaNO2, and 100 mM NaCl. […] These conditions were identical to those used in the preincubation treatment of collagen for biomechanical testing. Following a 24 hour incubation (4° C.), an aliquot from each sample was added into SDS-PAGE sample buffer (Biorad) in a ratio of 1:2 (sample:sample buffer), reduced by heating at 100° C. for 5 minutes with dithiothreitol (DTT), and analyzed by SDS-PAGE. The separating gel was 5% acrylamide and stacking gel 4%. Equivalent quantities of protein (6 μg per lane) were loaded onto separate wells. The samples were run at 25 volts for approximately 3.5 hours, which was the time necessary for the dye front to leave the bottom of the gel. The gels were then stained with Coomasie blue solution for no less than 3 hours. Following destaining, the gels were digitally photographed for densitometric analysis, which was carried out using the Un-Scan-it software program version 4.1 (Silk Scientific Corp). […]
# ARPE-19 cells = tested on: ARPE-19 cells
# From the text: A cytotoxicity study was undertaken to obtain an impression of the level of cellular tolerance to these compounds. For pilot experiments ARPE-19 cells were used. This is an immortal human retinal pigment epithelial cell line commonly used for experiments related to macular degeneration. In these pilot studies, the ARPE-19 cells serve as a surrogate for cytotoxicity experiments. Primary cultures of bovine corneal endothelial cells were also used in the cytotoxicity studies described. Bovine corneal cells have more direct relevance for evaluating potential cytotoxic effects during cross-linking of living eye tissue.
# ARPE-19 cells were grown to 80% confluence in 96 well tissue culture plates. The cells were then exposed to varying concentrations of NaNO2 and 2-nitroethanol in their culture medium and evaluated for cell death using trypan blue (TB) staining (0.4% for 5 min) after 24 hrs.
# porcine cornea [3] = conditions: 200 mM, pH 5.0, 37° C.
# Method: (§1) Adult porcine eyes were obtained within 12 hours of sacrifice and submerged in a solution of either 200 mM NaNO2 or 200 mM NaCl buffered with 200 mM NaH2PO4/Na2HPO4 (pH 5.0). Penicillin/Streptomycin was added (10 μl/ml) to prevent bacterial overgrowth. After 30 hours of incubation at 37° C., the corneas were excised at the limbus and photographed.
# After 30 and 80 hours of incubation at 37° C., the corneas were excised at the limbus and subjected to shrinkage temperature (thermal denaturation) analysis. The intact cornea was heated in 2° C. increments every 5 minutes using a digitally controlled water bath. The maximal dimensions in the long and short axis were measured using a micrometer under visualization with an operating microscope. The percentage of tissue shrinkage was then estimated by using 2 dimensional area calculations from the micrometer readings.
# porcine sclera [4] = conditions: 200 mM, pH 5.0, 37° C., 30 hours
# Method: as §1
# [5] = tested on: fibroblast-populated collagen gels; conditions: 100 mM; pretreatment pH 4.0 24 hours and posttreatment pH 7.4 seven days
# Method: Biaxial mechanical properties of the collagen gels were examined by performing equibiaxial load controlled experiments after 72 hours of culture for pretreated and 10 days of culture for posttreated collagen gels. To perform the planar biaxial mechanical test, the loading frame was first removed and the gels were floated to the top of their Petri dish using standard media (DMEM with 10% FBS and antibiotics) at 37° C. Gels were loaded by applying equal weights on all sides of the gel simultaneously (equibiaxial loading). First, gels were preconditioned by cyclically applying and removing 1 gram weights on all sides. […] One prominent feature of the preconditioning response in these gels is that the gels undergo some permanent deformation, not relaxing back to their initial dimensions even when fully unloaded.
# The magnitude of the permanent deformation associated with preconditioning was quantified by computing the associated strain (E^P11, E^P22) using the unloaded configuration of the gel at the beginning of the mechanical test as the reference state and the new, stable unloaded state achieved at the end of preconditioning as the deformed state. After preconditioning, calibrated weights from 0 to 1000 mg are applied equibiaxially in 100 mg increments. Images of the gel surface are taken 30 seconds after each load application or removal, and the strains associated with each load were computed relative to the preconditioned unloaded reference state at the beginning of the loading run.
# The impact of sodium nitrite on vertical deformation of uniaxially constrained gels was measured during each phase of the experiment.
# Initially square fibroblast-populated collagen gels were cast and allowed to polymerize for 2 hrs. Markers were painted on the gel surface to allow tracking of deformation in the central region during the remainder of the experiment. […] At 72 hrs, the gel was mechanically tested. […] Then, the gel was loaded in a series of smaller steps and the response quantified (loading phase).
# porcine cornea [6] = conditions: 200 mM, pH 5.0, 37° C., 30 hours
# Method: as §1
# porcine cornea [7] = experiment: Gross stiffness of porcine corneal strips handled with a forceps; conditions: 100 mM, pH 7.4, 37° C., 48 hrs
# Method: Fresh porcine corneal strips and corneoscleral complexes obtained within 6 hrs of sacrifice and incubated at 37° C. in buffered solutions (pH 7.4) containing 20% Dextran (T500) and either 100 mM NaNO2 or 100 mM of one each of the specified β-nitro alcohols
# These images were taken from tissues cross-linked with nitrite and the β-nitro alcohols 2-nitroethanol, 2-nitro-1-propanol, and […], for 48 hrs. […] Fresh porcine corneal strips and corneoscleral complexes were obtained within 6 hrs of sacrifice and incubated at 37° C. in buffered solutions (pH 7.4) containing 20% Dextran (T500) and either 100 mM NaNO2 or 100 mM of one each of the β-nitro alcohols. After 48 hrs, the following images were obtained. […] FIGS. 13 (B and D)
# corneal endothelial cell = conditions: 3 hrs exposure, rabbit organ culture, electron microscopy, Green 1977; cited from earlier work
# [8] = 100 mM, 1% DMSO, pH 7.4, 96 hrs
# [9] = NaNO2 100 mM pH 3 with 1 mM urea
# [10] = NaNO2 100 mM pH 3 with 10 mM urea
# [11] = NaNO2 100 mM pH 3 with 100 mM urea
# Chain of type I collagen (P02453 162-1217 limits assumed): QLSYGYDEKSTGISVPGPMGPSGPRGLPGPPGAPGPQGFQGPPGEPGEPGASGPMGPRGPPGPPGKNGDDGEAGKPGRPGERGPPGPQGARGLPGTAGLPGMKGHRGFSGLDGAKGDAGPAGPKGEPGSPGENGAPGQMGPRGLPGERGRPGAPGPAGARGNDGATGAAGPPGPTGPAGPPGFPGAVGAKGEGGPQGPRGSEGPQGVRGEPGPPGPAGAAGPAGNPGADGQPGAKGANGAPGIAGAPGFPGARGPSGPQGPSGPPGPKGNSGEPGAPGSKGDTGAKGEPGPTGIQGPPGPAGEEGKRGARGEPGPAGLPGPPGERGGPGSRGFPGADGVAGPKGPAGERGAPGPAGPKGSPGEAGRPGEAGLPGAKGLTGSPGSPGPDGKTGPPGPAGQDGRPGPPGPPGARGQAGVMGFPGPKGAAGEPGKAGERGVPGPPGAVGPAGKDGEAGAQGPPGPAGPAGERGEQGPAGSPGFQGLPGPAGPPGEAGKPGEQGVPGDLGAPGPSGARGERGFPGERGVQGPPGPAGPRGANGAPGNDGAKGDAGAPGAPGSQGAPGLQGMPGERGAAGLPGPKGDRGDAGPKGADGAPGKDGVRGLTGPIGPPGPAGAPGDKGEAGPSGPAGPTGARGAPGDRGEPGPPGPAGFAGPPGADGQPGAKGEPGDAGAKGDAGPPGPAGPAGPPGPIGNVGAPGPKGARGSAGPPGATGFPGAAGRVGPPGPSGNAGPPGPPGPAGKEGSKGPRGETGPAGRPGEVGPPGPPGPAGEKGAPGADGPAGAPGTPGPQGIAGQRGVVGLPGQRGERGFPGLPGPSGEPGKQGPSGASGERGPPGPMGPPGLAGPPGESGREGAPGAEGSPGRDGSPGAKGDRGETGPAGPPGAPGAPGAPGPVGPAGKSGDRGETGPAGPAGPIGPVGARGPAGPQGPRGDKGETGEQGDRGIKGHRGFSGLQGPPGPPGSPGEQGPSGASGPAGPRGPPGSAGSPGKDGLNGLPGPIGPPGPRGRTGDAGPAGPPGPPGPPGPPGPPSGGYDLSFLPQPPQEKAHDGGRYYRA
# Chain of type I collagen (P02465 80-1117 limits assumed): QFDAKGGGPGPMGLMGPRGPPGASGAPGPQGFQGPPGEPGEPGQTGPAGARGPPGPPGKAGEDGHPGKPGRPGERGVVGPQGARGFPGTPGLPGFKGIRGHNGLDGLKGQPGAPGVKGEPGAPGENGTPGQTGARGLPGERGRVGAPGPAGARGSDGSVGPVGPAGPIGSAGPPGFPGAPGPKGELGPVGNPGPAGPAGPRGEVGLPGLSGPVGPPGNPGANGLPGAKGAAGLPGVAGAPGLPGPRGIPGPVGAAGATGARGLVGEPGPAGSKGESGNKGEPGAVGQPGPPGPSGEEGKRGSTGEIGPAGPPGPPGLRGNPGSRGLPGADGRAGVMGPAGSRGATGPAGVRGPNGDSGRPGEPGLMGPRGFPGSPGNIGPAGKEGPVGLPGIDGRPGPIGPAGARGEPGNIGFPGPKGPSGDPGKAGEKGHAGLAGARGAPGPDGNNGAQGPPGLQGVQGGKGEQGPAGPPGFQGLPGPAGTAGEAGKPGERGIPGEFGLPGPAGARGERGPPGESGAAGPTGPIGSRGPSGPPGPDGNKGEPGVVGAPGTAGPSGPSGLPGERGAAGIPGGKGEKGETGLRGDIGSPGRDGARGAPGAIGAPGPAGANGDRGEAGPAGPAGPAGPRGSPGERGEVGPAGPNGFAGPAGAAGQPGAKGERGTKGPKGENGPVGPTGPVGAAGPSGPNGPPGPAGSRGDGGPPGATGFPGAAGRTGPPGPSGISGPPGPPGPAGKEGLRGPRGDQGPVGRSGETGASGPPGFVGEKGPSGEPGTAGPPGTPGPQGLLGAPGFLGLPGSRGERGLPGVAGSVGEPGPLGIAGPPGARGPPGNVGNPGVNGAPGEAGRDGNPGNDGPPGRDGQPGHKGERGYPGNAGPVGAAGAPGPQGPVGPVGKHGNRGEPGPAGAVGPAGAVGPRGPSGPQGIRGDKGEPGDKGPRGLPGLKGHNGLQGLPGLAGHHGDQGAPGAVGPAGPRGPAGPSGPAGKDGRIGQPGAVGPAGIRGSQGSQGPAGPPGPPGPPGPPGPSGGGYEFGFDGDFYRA
compound,measurement,setting,value
"CC(C)CCON=O [Isopentyl nitrite, isopentyl nitrite, reference compound]",T50,porcine sclera [1]; [8],65.4 °C
same,T50 Δ,porcine sclera [1]; [8],0.1 °C
same,shift in Ts (in words),"porcine sclera [1]; neutral pH, up to 100 mM",did not result in a shift in Ts
same,solubility in water,Solubility in water,poor solubility in water
"O=N[O-].[Na+] [NaNO2, sodium nitrite]",blocking of the cross-linking effect by equimolar urea,porcine sclera [1],unable to block
same,T50,"porcine sclera [1]; 100 mM, pH 3, 96 hrs",69.3 °C
same,T50 Δ,"porcine sclera [1]; 100 mM, pH 3, 96 hrs",4.0 °C
same,T50,"porcine sclera [1]; 100 mM, pH 5, 96 hrs",67.3 °C
same,T50 Δ,"porcine sclera [1]; 100 mM, pH 5, 96 hrs",2.0 °C
same,T50,porcine sclera [1]; [9],70.1 °C
same,T50 Δ,porcine sclera [1]; [9],4.8 °C
same,T50,porcine sclera [1]; [10],69.7 °C
same,T50 Δ,porcine sclera [1]; [10],4.4 °C
same,T50,porcine sclera [1]; [11],65.6 °C
same,T50 Δ,porcine sclera [1]; [11],0.3 °C
same,shifts in Ts (in words),porcine sclera [1]; pH 3,approximately equal shifts in Ts
same,T50 (temperature at 50% of maximal shrinkage),porcine sclera [1]; pH 7.4,65.7 °C
same,T50 Δ (change in 50% shrinkage temperature compared to control),porcine sclera [1]; pH 7.4,0.4 °C
same,effect on Ts (in words),porcine sclera [1]; pH 7.4,no effect
same,"Nitrite concentration in the aqueous humor, of the incubation fluid","[2]; 10 mM NaNO2, pH 7.4, 24 hours",35.5%
same,"Nitrite concentration in the aqueous humor, of the incubation fluid","[2]; 100 mM NaNO2, pH 7.4, 24 hours",62.8%
same,collagen cross-linking by SDS-PAGE,type I collagen; 10 mM,No differences are observed
same,collagen cross-linking by SDS-PAGE,type I collagen; 100 mM,cross-linking of collagen primary strands is indicated
same,tolerable level relative to genipin,ARPE-19 cells,at least 100 ×
same,tolerance by cells (trypan blue),"ARPE-19 cells; 100 mM, 24 hrs",tolerated by cells
same,highest tolerated level,ARPE-19 cells; ARPE-19,100 mM
same,increase of onset of tissue shrinkage,porcine cornea [3]; 30 hours of treatment,approximately 4 °C
same,increase of onset of tissue shrinkage,porcine cornea [3]; 80 hours of treatment,~8 °C
same,contour changes in sclera samples,porcine sclera [4],dramatic contour changes
same,vertical deformation associated with preconditioning,[5],reduced vertical deformation associated with preconditioning
same,vertical deformation at 1 g equibiaxial load,[5],reduced vertical deformation at 1 g equibiaxial load
same,vertical remodeling,[5],reduced vertical remodeling
same,contour changes in the corneas,porcine cornea [6],Dramatic contour changes
same,stiffness change when handled with a forceps,porcine cornea [7],intermediate effect
Benzalkonium chloride,Toxic concentration,corneal endothelial cell,(0.0001%)
